Assays:
Human PKC delta = Human PKC delta (Homo sapiens, UniProt Q05655); experiment: In vitro PKC inhibition, PKC delta; type: biochemical
Text: (§1) The methods for these determinations have been described (Grant, et al. 2010, Eur. J. Pharmacol. 627:16-25).

pSHP2 (PKCβ cell assay) = experiment: pSHP2 (PKCβ cell assay); type: cell-based
Text: as §1

Interleukin-8 release = experiment: Interleukin-8 release; type: cell-based
Text: as §1

Chain of Human PKC delta (Q05655 whole entry): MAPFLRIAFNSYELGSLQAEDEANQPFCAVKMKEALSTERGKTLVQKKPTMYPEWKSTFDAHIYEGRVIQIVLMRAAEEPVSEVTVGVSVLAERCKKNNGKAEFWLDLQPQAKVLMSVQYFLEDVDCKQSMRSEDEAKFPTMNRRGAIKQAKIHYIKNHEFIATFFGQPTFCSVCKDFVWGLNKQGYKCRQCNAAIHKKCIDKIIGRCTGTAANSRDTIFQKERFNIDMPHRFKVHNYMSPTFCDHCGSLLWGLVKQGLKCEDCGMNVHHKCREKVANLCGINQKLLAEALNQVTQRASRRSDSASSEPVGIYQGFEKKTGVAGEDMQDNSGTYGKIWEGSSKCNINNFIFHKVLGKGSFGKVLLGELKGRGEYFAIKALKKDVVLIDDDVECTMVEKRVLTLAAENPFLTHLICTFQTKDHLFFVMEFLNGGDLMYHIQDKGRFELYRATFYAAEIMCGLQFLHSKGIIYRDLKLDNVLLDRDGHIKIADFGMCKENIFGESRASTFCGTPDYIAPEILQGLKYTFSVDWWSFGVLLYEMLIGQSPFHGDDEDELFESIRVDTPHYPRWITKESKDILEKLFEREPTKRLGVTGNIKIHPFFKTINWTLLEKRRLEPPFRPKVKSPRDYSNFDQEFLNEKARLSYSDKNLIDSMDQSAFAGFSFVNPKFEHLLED

Inhibition of PKC delta (in words) (Human PKC delta): does not significantly inhibit
IC50 (pSHP2 (PKCβ cell assay)): 9.8 nM
IC50 (Interleukin-8 release): 39 nM
Compound: Cc1ncc(F)c(Nc2n[nH]c3c2CN(C(=O)N2C[C@@H](C)N(CC4CCOCC4)C[C@@H]2C)C3(C)C)n1 [Compound 1, 5-{[(2S,5R)-2,5-dimethyl-4-(tetrahydro-2H-pyran-4-ylmethyl)piperazin-1-yl]carbonyl}-N-(5-fluoro-2-methylpyrimidin-4-yl)-6,6-dimethyl-1,4,5,6-tetrahydropyrrolo[3,4-c]pyrazol-3-amine]

From US12415807B2, “PKC inhibitor solid state forms” (MingSight Pharmaceuticals, Inc., priority 2017, dated 2025)
